Source: PubChem BioAssay (NCI)
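Cells were grown in 96-well plates and exposed to each compound for 48 hours at five concentrations; endpoints were interpolated linearly between bracketing concentrations, or set to the highest concentration if not reached. GI50 marks 50% less growth. TGI: total growth inhibition.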

Legend:
Experiment in all cases: inhibition of tumour cell growth, NCI panel, 48 h
CAKI-1 renal = system: CAKI-1 renal
COLO 205 colon = system: COLO 205 colon
NCI-H226 lung = system: NCI-H226 lung
CCRF-CEM leukemia = system: CCRF-CEM leukemia
SF-539 CNS = system: SF-539 CNS
HL-60(TB) leukemia = system: HL-60(TB) leukemia
HCT-15 colon = system: HCT-15 colon
NCI-H522 lung = system: NCI-H522 lung
RPMI-8226 leukemia = system: RPMI-8226 leukemia
HOP-62 NSCLC = system: HOP-62 NSCLC

Row | SMILES | TGI (CAKI-1 renal) [µM] | TGI (COLO 205 colon) [µM] | TGI (NCI-H226 lung) [µM] | TGI (CCRF-CEM leukemia) [µM] | TGI (SF-539 CNS) [µM] | TGI (HL-60(TB) leukemia) [µM] | TGI (HCT-15 colon) [µM] | TGI (NCI-H522 lung) [µM] | TGI (RPMI-8226 leukemia) [µM] | TGI (HOP-62 NSCLC) [µM] | GI50 (CAKI-1 renal) [µM] | GI50 (COLO 205 colon) [µM] | GI50 (SF-539 CNS) [µM] | GI50 (HL-60(TB) leukemia) [µM] | GI50 (NCI-H522 lung) [µM] | GI50 (RPMI-8226 leukemia) [µM]
1 | c1ccc2c(c1)nc1n2CSC1 | > 100 | > 100 | > 100 | > 100 | > 100 | > 100 | > 100 | > 100 | > 100 |  |  |  |  |  |  | 
2 | CC(=O)[O-].CC(=O)[O-].[NH2-].[Pt+2].c1ccncc1 | > 100 | > 100 | > 100 | > 100 | 55.1 | 43.7 | > 100 | 44.2 | > 100 | > 100 |  |  |  |  |  | 
3 | CN1CCN(Cc2ccc(NC(=O)c3ccc(C#N)c(C#Cc4cnc(N)c5ncccc45)c3)cc2C(F)(F)F)CC1 | 5.04 | > 100 |  |  | 3.06 | > 100 |  | 28.6 | 8.59 |  | 1.91 | 4.02 | 1.52 | 14.5 | 2.94 | 2.74
4 | CCOP(=O)(OCC)C(Cc1ccc(OC)c(OC)c1)N=C(c1ccccc1)c1ccccc1 (centres undefined) | > 100 | 38.1 | > 100 | 96.9 | > 100 | 51.9 | > 100 | 97.3 | 44.3 |  |  |  |  |  |  | 
5 | O=C1CN2C(Cl)(Cl)C2(c2ccccc2)c2cc(Cl)ccc2N1CC(F)(F)F (centres undefined) | > 100 | 39.3 | 67 | 42.3 |  |  | 81.6 | 42.7 | 78.5 | 60.7 |  |  |  |  |  | 
6 | [C-]#[O+].[Cl][Sn]([Cl])[Cl].[Cl][Sn]([Cl])[Cl].[Pt].c1ccncc1 | > 100 | > 100 | > 100 | > 100 | > 100 | > 74 | > 100 | > 65.3 | > 100 | > 100 |  |  |  |  |  | 
7 | Cc1cc2c(cc1C)[n+](=O)c(C(=O)N1CCN(c3ccc([N+](=O)[O-])cc3)CC1)c(C)n2[O-] | > 100 | > 100 |  | > 100 | 35.4 | > 100 | > 100 | > 100 | > 100 | 29.4 |  |  |  |  |  | 
8 | CC1=C[C@]2(CC(C)C3C(CC4(C)C5CCC6C(C)(C)C(=O)CC[C@@]67C[C@@]57CC[C@]34C)O2)OC1=O (some centres undefined) | 62.2 | > 100 | 22 | > 100 | 42.5 | > 100 | > 100 |  | > 100 |  |  |  |  |  |  | 
9 | O=C(Nc1ccc(Cl)cc1)/C(Cc1cccc[n+]1[O-])=N\Nc1ccc([N+](=O)[O-])cc1[N+](=O)[O-] | > 100 | > 100 |  | > 100 | > 100 | > 100 | > 100 | > 100 | > 100 | > 100 |  |  |  |  |  | 
10 | COc1cc(C(N)=O)cc(NC(=O)/C=C/c2ccccc2)c1OC | > 100 | > 100 |  | > 100 | > 100 | > 100 | > 100 | > 100 | > 100 | > 100 |  |  |  |  |  | 
11 | Cc1ccc(S(=O)(=O)Oc2cc(S(=O)(=O)O)cc3cc(S(=O)(=O)O)cc(N)c23)cc1 | > 100 | > 100 | > 100 | > 100 | > 100 | > 100 | > 100 | > 100 | > 100 | > 100 |  |  |  |  |  | 
12 | CC1(C)CCc2cc3c(-c4ccccc4)cc(=O)oc3cc2O1 | > 100 | > 100 | > 100 | > 100 | > 100 | > 100 | > 100 | > 100 | > 100 |  |  |  |  |  |  | 
13 | Cc1cccc2c(N)c3cccc(C(=O)NCCN(C)C)c3nc12 | 1.08 | 0.229 | 1.48 | 0.0324 |  | 0.0427 | 4.29 | 0.0737 | 0.128 | 0.459 |  |  |  |  |  | 
14 | O=C1Nc2ccccc2Nc2nc3cccccc-3c21 | > 100 | > 100 | > 100 | > 100 | > 100 | > 100 | > 100 | > 100 | > 100 | > 100 |  |  |  |  |  | 
15 | CO/N=C1/c2sccc2[C@H](NC(=O)C(F)(F)F)[C@@H]1O | > 100 | > 100 | > 100 | > 100 | > 100 | > 100 | > 100 |  |  | > 100 |  |  |  |  |  | 
